Columns and labels:
CCK-2R = tested on: CCK-2R; set-up: method as in PMID 24325469; settings: cited from earlier work
A549 cells = experiment: [111In]In-IP-001 cellular uptake; type: cell-based, human
Experimental: A549 epithelial lung cancer cells were seeded in 6-well plates (20,000/cm^2) and allowed to adhere overnight. The following day, the medium was removed and radiotracer uptake was studied by incubating 2 × 10^5 cells at 37 °C in 2 mL of culture medium added to 30 µL (ca. 2 MBq, 1.35 μg, 1 nmol) of [^111In]In-IP-001. Uptake was monitored at 2, 4, 8, and 24 h. At these time points, the medium was removed and cells were washed twice with 2 mL of ice-cold PBS. Finally, cells were detached with 2 mL of a 0.25% trypsin/EDTA solution at 37 °C and centrifuged to separate the supernatant from the cells pellet. The radioactivity associated with the pellets was measured in a γ-spectrometer and corrected for decay. All experiments were performed in triplicate.

[1] = Lipophilicity, octanol-water shaking flask method; type: physicochemical
Experimental: (§1) The stability of [^111In]In-IP-001 solutions (0.5 mL, 10 nmol, 18 MBq) was assessed by means of radio-TLC or RP-HPLC at various temperatures (4, 24, and 37 °C) and in the presence of different media up to 120 h after preparation. The studies were performed by incubating the radiotracer with (i) a 0.9% NaCl solution at a 9:1 ratio, (ii) a 0.1 M HEPES solution at a 9:1 ratio, (iii) a 0.1 M EDTA solution at 9:1 and 1:1 ratios, (iv) human serum (HS) at a 9:1 ratio, and (v) HB at a 1:1 ratio. After TLC analysis, samples incubated with HB were centrifuged at 3000 rpm for 10 min to precipitate blood cells, and 200 μL of a MeCN/H2O/TFA 50/45/5 v/v/v solution was added to 400 μL of the supernatant. After another centrifugation under the same conditions, the supernatant was discarded and the residual radioactivity due to the proteins bound fraction was measured in a dose calibrator. Lipophilicity calculation were performed in octanol–water with the shaking flask method, as already described elsewhere. All experiments were performed in triplicate.

[2] = Stability of the radiotracer in human blood; type: in vitro ADME; settings: for Stability (%), amount of intact radiotracer: Human blood
Experimental: (§2) HPLC analyses on indium-111-labelled IP-001 were performed on an S1125 HPLC pump system, and the column used was an Acclaim 120 C18, 3 × 150 mm, 3 µm 120 Å pore size; flow: 0.6 mL/min; gradient: minutes 0–2 A: 70% B: 30%; minutes 2–12 B: 30% -> 95%; and minutes 12–15 B: 95% -> 30%, where A: H2O (0.1% TFA) and B: MeCN. Detection was carried out with an S3245 UV–Vis and an S3700 gamma detector system.
(§3) TLC plates used for the assessment of the preparative reactions were silica gel 60 […] (0.2 mm, Merck) with the eluents mentioned for the specific product in the following paragraphs. Column chromatography was carried out with silica gel 60 (0.063–0.100 mm, Merck), and elution was performed using the eluent described for the specific preparations. The radioactive incorporation and stability of [^111In]In-IP-001 were assessed on ITLC-SG plates, developed in a 1 M ammonium acetate/MeOH 1:1 v/v solution, by using a flatbed-imaging scanner (Cyclone, Perkin Elmer).
as §1

[3] = Stability of the radiotracer in NaCl 0.9%, HEPES and EDTA (radio-TLC / RP-HPLC); type: physicochemical
Experimental: as §2, §3, §1

A549 xenograft tumors [4] = experiment: Ex vivo biodistribution in A549 tumor-bearing mice; set-up: species or system BALB/c nude mice
Experimental: (§4) Homozygous female BALB/c nude J:NU (JAX stock number 007850) mice were purchased from Jackson Laboratories (Bar Harbor, ME, USA). Mice were 4 weeks old at arrival, and they were hosted in an IVC system (Smart Flow AHU, Tecniplast) with autoclaved rodent bedding hosting 3–4 mice per cage. Mice were fed with autoclaved rodent food and water ad libitum. The inoculation of A549 tumor cell line was performed by the subcutaneous injection of 5 × 10^6 cells/mouse in 100 uL of […] medium (RPMI added of 10% FBS, 1% penicillin-streptomycin, 1% glutamine) into the right shoulder. […] Inoculation was carried out at 5 weeks of age after one week in the facility for acclimatization purposes. Mice were monitored every 2–3 days by measuring weight and tumor dimensions with an electronic caliper. For this purpose, two perpendicular dimensions were noted and volumes of the tumors were calculated with the formula 0.5 × L × W^2, where L is the measurement of the longest axis and W is the measurement of the axis perpendicular to L, in millimeters.
Tumors were allowed to grow for about five weeks until they reached 0.5–1.0 cm of size in one dimension (i.e., around 50–250 mm^3 volume), and then mice were divided in two groups. The experimental group (n = 5) was intravenously injected (retro-orbital venous sinus) with 150 μL of a [^111]In-IP-001 solution (2.06 nmol, 7.4MBq), while the blocked group (n = 5) was injected with 150 μL of a [^111]In-IP-001 solution added to a 50-fold molar excess of cold ligand. All injections were performed with the animals under isoflurane anesthesia (1–3%), using 30G ultra-fine insulin syringes. Real-time, live, and fast dynamic screening studies were performed right after injection and on selected time points post-injection, on a dedicated desktop, mouse-sized, planar scintigraphic system (γ-eye^TM by BIOEMTECH, Athens, Greece). The system supports fusion with a digital mouse photograph for anatomical co-registration. The main detector is based on two position-sensitive photomultiplier tubes coupled to a CsI(Na) pixelated scintillator and a medium-energy lead collimator with parallel hexagonal holes that supports a range of SPECT isotopes. The system’s field of view is 5 × 10 cm^2, with a spatial resolution of ~2 mm. […] This allowed for a fast test, right after injection, to check whether the injection was successful, and on later time points to quickly evaluate the bio-kinetics of the tracer. Tomographic SPECT/CT imaging was performed with y-CUBE^TM and x-CUBE^TM (Molecubes, Belgium), respectively, at the same selected time points post-injection. The SPECT system provides a spatial resolution of 0.6 mm for mouse imaging and of 1.5 mm for rat imaging. The CT system performs a spiral scan, it can provide images with 100 um resolution, and images were acquired with 50 kVp. Mouse imaging was performed by keeping the mice anaesthetized under isoflurane and under a constant temperature of 37 °C. SPECT scans were acquired with a 45 min duration, and each SPECT scan was followed by a high-resolution CT scan for co-registration purposes. The SPECT data were reconstructed through a maximum-likelihood expectation-maximization (MLEM) algorithm, with a 500 μm voxel size and […]. CT data were reconstructed through an iterative image space reconstruction algorithm (ISRA) algorithm with a 100 μm voxel size. Tomographic images are presented through maximum intensity projection (MIP) view). The experimental group was imaged at 2, 4, 8, and 24 h post-injection with both imaging systems, while the blocked group was imaged at 4 and 24 h.
(§5) For biodistribution studies, the injections were performed as described above, and 3 mice for both groups were sacrificed at 4 and 24 h post injection using 2% isoflurane. Main organs and tissues were removed, weighed, and counted together with blood samples, muscle, and urine by a γ-counter system (Cobra II from Packard, Canberra, ME, USA). […]

A549 xenograft tumors [5] = experiment: Blocking experiment with 50-fold molar excess of unlabeled IP-001, ex vivo biodistribution; type: in vivo, BALB/c nude mice
Experimental: as §4
Tumors were allowed to grow for about five weeks until they reached 0.5–1.0 cm of size in one dimension (i.e., around 50–250 mm^3 volume), and then mice were divided in two groups. The experimental group (n = 5) was intravenously injected (retro-orbital venous sinus) with 150 μL of a [^111]In-IP-001 solution (2.06 nmol, 7.4MBq), while the blocked group (n = 5) was injected with 150 μL of a [^111]In-IP-001 solution added to a 50-fold molar excess of cold ligand. All injections were performed with the animals under isoflurane anesthesia (1–3%), using 30G ultra-fine insulin syringes. […]
as §5

[6] = Stability of the radiotracer in human serum; type: in vitro ADME; settings: for Stability (%), amount of intact radiotracer: Human serum
Experimental: as §2, §3, §1

## CC(C)(C)C(=O)CN1C(=O)[C@H](NC(=O)Nc2cccc(C(=O)O)c2)CN(C2CCCCC2)c2ccccc21 [Z-360, Nastorazepide]
CCK-2R; CCK-2R versus CCK-1R
  selectivity relative to CCK-1R: 672
CCK-2R; CCK-2R
  Kd: 0.47 nM

## CC(C)(C)C(=O)CN1C(=O)C(NC(=O)Nc2cccc(C(=O)NCCCCCCNC(=O)CCC(=O)NCCCOCCOCCOCCCNC(=O)CN3CCN(CC(=O)[O-])CCN(CC(=O)[O-])CCN(CC(=O)[O-])CC3)c2)CN(C2CCCCC2)c2ccccc21.[111In+3] (stereo not shown) [[^111In]In-IP-001]
A549 cells; 2 MBq, 4 h of incubation
  maximal accumulation (percent of the added radioactivity per million cells): around 5%
A549 cells; incubation up to 24 h
  incubation time of maximal accumulation: 4 h
[1]
  partition coefficient (LogP): 0.45
[2]; 4 h
  Stability (%), amount of intact radiotracer: 98 ± 2%
[2]; 8 h
  Stability (%), amount of intact radiotracer: 95 ± 1%
[2]; 24 h
  Stability (%), amount of intact radiotracer: 95 ± 2%
[2]; 72 h
  Stability (%), amount of intact radiotracer: 93 ± 1%
[2]; 120 h
  Stability (%), amount of intact radiotracer: 93 ± 2%
[2]; human blood (HB), after 48 h
  percentage of intact compound: higher than 95%
[3]; EDTA (0.1 M), 4 h
  Stability (%), amount of intact radiotracer: 98 ± 1%
[3]; EDTA (0.1 M), 8 h
  Stability (%), amount of intact radiotracer: 98 ± 1%
[3]; EDTA (0.1 M), 24 h
  Stability (%), amount of intact radiotracer: 96 ± 2%
[3]; EDTA (0.1 M), 72 h
  Stability (%), amount of intact radiotracer: 96 ± 3%
[3]; HEPES (0.1 M), 4 h
  Stability (%), amount of intact radiotracer: 98 ± 2%
[3]; HEPES (0.1 M), 8 h
  Stability (%), amount of intact radiotracer: 97 ± 3%
[3]; HEPES (0.1 M), 24 h
  Stability (%), amount of intact radiotracer: 97 ± 3%
[3]; HEPES (0.1 M), 72 h
  Stability (%), amount of intact radiotracer: 96 ± 1%
[3]; NaCl 0.9%, 4 h
  Stability (%), amount of intact radiotracer: 98 ± 2%
[3]; NaCl 0.9%, 8 h
  Stability (%), amount of intact radiotracer: 98 ± 2%
[3]; NaCl 0.9%, 24 h
  Stability (%), amount of intact radiotracer: 97 ± 2%
[3]; NaCl 0.9%, 72 h
  Stability (%), amount of intact radiotracer: 97 ± 2%
A549 xenograft tumors [4]; 4 h post injection (abstract)
  spleen uptake: 3.88 ± 0.36 % ID/cc
A549 xenograft tumors [4]; 4 h post injection, i.v., n = 3
  tumor uptake: 2.36 ± 0.26 % IA/g
A549 xenograft tumors [4]; 4 h post injection, n = 3
  blood uptake: 4.21 ± 0.40 % IA/g
  intestines uptake: 2.39 ± 0.28 % IA/g
  kidneys uptake: 6.99 ± 0.97 % IA/g
  liver uptake: 8.25 ± 2.21 % IA/g
  lungs uptake: 2.82 ± 0.21 % IA/g
  pancreas uptake: 2.03 ± 0.16 % IA/g
  spleen uptake: 3.88± 0.36 % IA/g
A549 xenograft tumors [4]; 24 h post injection
  intestines uptake: 0.55 ± 0.29 % IA/g
  kidneys uptake: 3.11 ± 0.52 % IA/g
  liver uptake: 3.55 ± 1.17 % IA/g
  pancreas uptake: 0.26 ± 0.04 % IA/g
  tumor to blood (T/B) ratio: 10.19
  tumor to kidneys ratio: 0.48
  tumor to liver ratio: 0.47
  tumor to muscle (T/M) ratio: 15.72
  tumor/intestines ratio: 2.76
  tumor/lungs ratio: 2.02
  tumor/pancreas ratio: 5.85
A549 xenograft tumors [4]; 24 h post injection, n = 3
  tumor uptake: 1.52 ± 0.71 % IA/g
A549 xenograft tumors [4]; 24 h post-injection relative to 4 h
  accumulated radiotracer still retained in tumor tissue: 65%
A549 xenograft tumors [4]; intestines, lungs, and pancreas, from 4 h to 24 h
  decrease of the signal over 24 h: more than 73%
A549 xenograft tumors [5]; 4 h post injection
  difference in radioactivity in organs and tumors between normal and blocked groups: no significant differences
A549 xenograft tumors [5]; 24 h post injection, with 50-fold molar excess of unlabeled IP-001, n = 3
  tumor uptake, blocked group: 0.84 ± 0.33 % IA/g
A549 xenograft tumors [5]; blocked versus experimental group, 24 h
  lower uptake in the tumor tissue in the blocking setting: 45%
[6]; 4 h
  Stability (%), amount of intact radiotracer: 98 ± 2%
[6]; 8 h
  Stability (%), amount of intact radiotracer: 96 ± 3%
[6]; 24 h
  Stability (%), amount of intact radiotracer: 95 ± 3%
[6]; 72 h
  Stability (%), amount of intact radiotracer: 94 ± 2%
[6]; 120 h
  Stability (%), amount of intact radiotracer: 93 ± 1%
[6]; human serum, after 48 h
  percentage of intact compound: higher than 95%
